We go through one molecule from paper PMC11756644 (ACS chemical biology, 2015).

This test has as its target T1, tPAD1 (Saccharomyces cerevisiae, UniProt P33751).
T1 sequence (P33751 55-242): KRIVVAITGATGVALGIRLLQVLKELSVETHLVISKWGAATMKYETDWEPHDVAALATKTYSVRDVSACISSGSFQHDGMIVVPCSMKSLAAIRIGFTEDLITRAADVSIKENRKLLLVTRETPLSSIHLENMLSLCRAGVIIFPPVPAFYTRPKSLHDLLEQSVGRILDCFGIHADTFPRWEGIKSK
As to the kind of experiment: UV-visible spectrum of purified protein. Format: binding. The conditions noted are these: co-purified from E. coli; oxidized FMN.

Turning to `Cc1cc2nc3c(=O)[nH]c(=O)nc-3n(C[C@H](O)[C@H](O)[C@H](O)COP(=O)(O)O)c2cc1C` [FMN], the “UV-visible spectrum of purified protein; LC-ESI-MS of released flavin” value was “The presence of FMN was confirmed by LC-ESI-MS. FMN was released from tPAD1 by precipitation”.
